{"source": "paper PMC8972805", "about": "“Monomodular Pseudomonas aeruginosa phage JG004 lysozyme (Pae87) contains a bacterial surface-active antimicrobial peptide-like region and a possible substrate-binding subdomain” (Acta Crystallographica. Section D, Structural Biology, 2022)", "molecular_target": "T1, Pae87 (Pseudomonas phage JG004, UniProt F4YDQ3)", "T1 construct": "gene PJG4_087; full length, 186 residues, N-terminal 6xHis tag (pET-28a(+), tag kept, up to two tag residues modelled), synthetic gene, expressed in E. coli BL21(DE3); one molecule in asymmetric unit of the complex", "T1 sequence (F4YDQ3 entry or part of it)": "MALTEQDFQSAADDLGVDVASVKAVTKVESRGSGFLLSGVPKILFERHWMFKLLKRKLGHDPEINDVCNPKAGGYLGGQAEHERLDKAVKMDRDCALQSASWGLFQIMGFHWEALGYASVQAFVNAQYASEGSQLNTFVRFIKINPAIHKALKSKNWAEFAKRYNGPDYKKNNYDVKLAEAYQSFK", "experiment": "X-ray crystal structure of complex, […] Å", "assay_type": "binding", "conditions": "fragment from PAO1 peptidoglycan hydrolysed by Pae87; second site about 18 Å from catalytic site (helices 4, 5 and 7); Tris-HCl pH 8.0, PEG MME 5000"}
{"compound": "CC(=O)N[C@H]1[C@H](O[C@H]2[C@H](O[C@H](C)C(=O)N[C@@H](C)C(=O)N[C@H](CCC(=O)O)C(=O)O)[C@@H](NC(C)=O)C(O)O[C@@H]2CO)O[C@H](CO)[C@@H](O)[C@@H]1O", "note": "(stereo partly shown) [peptidoglycan fragment]", "values": [{"measurement": "X-ray crystal structure of complex, 1.27 Å", "value": "the peptidoglycan fragment (comprised of linked NAG, MurNAc, L-alanine"}]}
